Key:
[1] = test system: KRAS G12D mutant pancreatic cancer cell line AsPC-1; assay: Cell viability assay using KRAS G12D mutant cells (AsPC-1, 3D culture, celltiter-glo 3D); format: cell-based; details: Homo sapiens, ASPC1, 5th day after compound treatment
Procedure: Test Example 3: Cell Viability Assay Using KRAS G12D Mutant Cells
The KRAS G12D mutant pancreatic cancer cell line AsPC-1 was obtained from the Korean Cell Line Bank (KCLB) and maintained in 100-mm dishes or T75 (75 cm^2) flasks using RPM11640+10% fetal bovine serum (FBS)+1% Penicillin-Streptomycin medium. The cells were cultured at 37° C. with 5% CO2. The number of viable cells was counted using Countess (Invitrogen).
When AsPC-1 cells reached 85-100% confluence in the flask, the cells were harvested using 1× trypsin/EDTA solution, and seeded into a 96-well plate for 3D culture at 1000 cells/100 μL/well. The next day, the compounds were diluted ⅕ with DMSO from 10 μM or 50 μM to 0.0001 μM or 0.0006 μM and treated 1:1 (v/v) in the plate where the cells were seeded.
Cell culture was terminated on the 5th day after compound treatment, and cell viability at each concentration was measured using the celltiter-glo 3D cell viability assay kit.
Cell viability assays were normalized to 100% for the DMSO-treated group and expressed as a percentage of the number of viable cells when treated with the compound.
Cell viability %=(average RLU of group treated with test substance−average RLU of untreated group)/(average RLU of group treated with DMSO−average RLU of untreated group)×100
The data were modeled using GraphPad Prism 9 (GraphPad Software) by applying a nonlinear regression curve fit with a four-parameter sigmoidal dose-response curve to determine cell viability as a function of compound concentration. The 50% inhibitory concentration (IC50) corresponds to the concentration at which the curve intersects the midpoint of cell viability. The results of the inhibitory effect of the compounds according to one embodiment of the present application on the viability of KRAS G12D mutant cells are presented in Table 4.

[2] = test system: ERK phosphorylation (pERK) induced by KRAS G12D mutation; assay: Inhibitory activity against ERK phosphorylation (pERK) induced by KRAS G12D mutation, immunofluorescence assay in AsPC-1 cells; format: cell-based; details: Homo sapiens, ASPC1, 3 h drug treatment, pERK (Thr202/Tyr204) signal normalized to DAPI
In short: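 AsPC-1 cells attached 16 h, then treated 3 h with 3-fold dilutions from 10 μM top. Fixed, permeabilized, immunostained for pERK (Thr202/Tyr204) with Alexa 488 secondary; high-content imaging, signal normalized to DAPI and to DMSO, IC50 from four-parameter fit.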

[3] = target: T1, GDP-KRAS G12D mutant protein (Homo sapiens, UniProt P01116, G12D); assay: Differential scanning fluorimetry (DSF) binding affinity to GDP-KRAS G12D mutant protein; details: DSF thermal shift, 10 μM compound, 4 μg KRAS protein
T1 construct: purchased Daegu Gyeongbuk Medical Innovation Foundation (DGMIF), made to order
In short: (§1)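 Each sample held 4 μg recombinant KRAS G12D (GDP- or GppNHp-bound) and 10 μM compound, incubated 30 min at room temperature before adding 2× SYPRO Orange. The GDP form was run in kit buffer, the GppNHp form in 50 mM HEPES pH 7.5. Melt was 25–99 °C at 0.05 °C/s (580/623 nm), reported as ΔTm versus no compound.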

[4] = target: T2, GppNHp-KRAS G12D mutant protein (Homo sapiens, UniProt P01116, G12D); assay: Differential scanning fluorimetry (DSF) binding affinity to GppNHp-KRAS G12D mutant protein; details: DSF thermal shift, 10 μM compound, 4 μg KRAS protein, 50 mM HEPES (pH 7.5)
T2 construct: purchased Daegu Gyeongbuk Medical Innovation Foundation (DGMIF), made to order
In short: as §1

SMILES | IC50 [1] [µM] | IC50 [2] [µM] | GDP-KRAS G12D (ΔTmD, ° C.) [3] [°C] | GppNHp-KRAS G12D (ΔTmD, ° C.) [4] [°C]
C#Cc1c(F)ccc2cc(O)cc(-c3cc4nc(OC[C@@]56CCCN5CC(=C(F)F)C6)nc(N5C[C@H]6CC[C@@H](C5)N6)c4n4ccnc34)c12 [Example 37, 4-(1-((1R,5S)-3,8-diazabicyclo[3.2.1]octan-3-yl)-3-(((S)-2-(difluoromethylene)tetrahydro-1H-pyrrolizin-7a(5H)-yl)methoxy)imidazo[1′,2′:1,6]pyrido[3,2-d]pyrimidin-6-yl)-5-ethynyl-6-fluoronaphthalen-2-ol] | 0.029 | 0.012 | 11.53 | 5.76
C#Cc1c(F)ccc2cc(N)cc(-c3cc4nc(OC[C@@]56CCCN5C/C(=C\F)C6)nc(N5[C@@H]6CC[C@H]5CNC6)c4n4ccnc34)c12 [Example 38, 4-(1-((1R,5S)-3,8-diazabicyclo[3.2.1]octan-8-yl)-3-(((S,Z)-2-(fluoromethylene)tetrahydro-1H-pyrrolizin-7a(5H)-yl)methoxy)imidazo[1′,2′:1,6]pyrido[3,2-d]pyrimidin-6-yl)-5-ethynyl-6-fluoronaphthalen-2-amine] | 0.012 | 0.015 | 9.61 | 6.65
C#Cc1c(F)ccc2cc(O)cc(-c3cc4nc(OC[C@]56CC(=C)CN5C[C@@H](F)C6)nc(N5CC6CCC(C5)N6)c4n4ccnc34)c12 [Example 39, 4-(1-((1R,5S)-3,8-diazabicyclo[3.2.1]octan-8-yl)-3-(((2S,7aR)-2-fluoro-6-methylenetetrahydro-1H-pyrrolizin-7a(51H)-yl)methoxy)imidazo[1′,2′:1,6]pyrido[3,2-d]pyrimidin-6-yl)-5-ethynyl-6-fluoronaphthalen-2-ol] | 0.091 | 0.076 | 8.87 | 5.61
Cc1cc2c(o1)c(-c1cc(O)cc3ccccc13)cc1nc(OC[C@@]34CCCN3C[C@H](F)C4)nc(N3C[C@H]4CC[C@@H](C3)N4)c12 [Example 41, 4-(1-((1R,5S)-3,8-diazabicyclo[3.2.1]octan-3-yl)-3-(((2R,7aS)-2-fluorotetrahydro-1H-pyrrolizin-7a(5H)-yl)methoxy)-8-methylfuro[3,2-f]quinazolin-6-yl)naphthalen-2-ol] | 1.02 | 0.899 | 5.46 | 0.87
C#Cc1c(F)ccc2cc(O)cc(-c3cc4nc(OC[C@@]56CCCN5C[C@H](F)C6)nc(N5C[C@H]6CC[C@@H](C5)N6)c4c4cc(C)oc34)c12 [Example 42, 4-(1-((1R,5S)-3,8-diazabicyclo[3.2.1]octan-3-yl)-3-(((2R,7aS)-2-fluorotetrahydro-1H-pyrrolizin-7a(5H)-yl)methoxy)-8-methylfuro[3,2-f]quinazolin-6-yl)-5-ethynyl-6-fluoronaphthalen-2-ol] | 0.105 | 0.064 | 10.96 | 5.75
C#Cc1c(F)ccc2cc(O)cc(-c3c(F)c4nc(OC[C@@]56CCCN5C[C@H](F)C6)nc(N5CC6CCC(C5)N6)c4c4cc(C)oc34)c12 [Example 44, 4-(1-((1R,5S)-3,8-diazabicyclo[3.2.1]octan-3-yl)-5-fluoro-3-(((2R,7aS)-2-fluorotetrahydro-1H-pyrrolizin-7a(5H)-yl)methoxy)-8-methylfuro[3,2-n]quinazolin-6-yl)-5-ethynyl-6-fluoronaphthalen-2-ol] | 0.007 | 0.012 | 14.33 | 9.89
C#Cc1c(F)ccc2cc(N)cc(-c3c(F)c4nc(OC[C@@]56CCCN5C[C@H](F)C6)nc(N5C[C@H]6CC[C@@H](C5)N6)c4c4cc(C)oc34)c12 [Example 57, 4-(1-((1R,5S)-3,8-diazabicyclo[3.2.1]octan-3-yl)-5-fluoro-3-(((2R,7aS)-2-fluorotetrahydro-1H-pyrrolizin-7a(5H)-yl)methoxy)-8-methylfuro[3,2-f]quinazolin-6-yl)-5-ethynyl-6-fluoronaphthalen-2-amine] | 0.101 | 0.167 | 8.57 | 5.76
C#Cc1c(F)ccc2cc(O)cc(-c3c(F)c4nc(OCC5(CN6CCC7(CC6)CC7(F)F)CC5)nc(N5C[C@H]6CC[C@@H](C5)N6)c4c4cc(C)oc34)c12 [Example 59, 4-(1-((1R,5S)-3,8-diazabicyclo[3.2.1]octan-3-yl)-3-((1-((1,1-difluoro-6-azaspiro[2.5]octan-6-yl)methyl)cyclopropyl)methoxy)-5-fluoro-8-methylfuro[3,2-n]quinazolin-6-yl)-5-ethynyl-6-fluoronaphthalen-2-ol] | 0.069 | 0.054 | 12.88 | 6.06
C#Cc1c(F)ccc2cc(O)cc(-c3c(F)c4nc(OC[C@]56CC(=C)CN5C[C@@H](F)C6)nc(N5C[C@H]6CC[C@@H](C5)N6)c4c4cc(C)oc34)c12 [Example 65, 4-(1-((1R,5S)-3,8-diazabicyclo[3.2.1]octan-3-yl)-5-fluoro-3-(((2S,7aR)-2-fluoro-6-methylenetetrahydro-1H-pyrrolizin-7a(5H)-yl)methoxy)-8-methylfuro[3,2-f]quinazolin-6-yl)-5-ethynyl-6-fluoronaphthalen-2-ol] | 0.005 | 0.004 | 14.23 | 8.60
C#Cc1c(F)ccc2cc(O)cc(-c3cc4nc(OC[C@@]56CCCN5C[C@H](F)C6)nc(N5C[C@H]6CC[C@@H](C5)N6)c4c4cn(C)nc34)c12 [Example 69, 4-(9-((1R,5S)-3,8-diazabicyclo[3.2.1]octan-3-yl)-7-(((2R,7aS)-2-fluorotetrahydro-1H-pyrrolizin-7a(5H)-yl)methoxy)-2-methyl-2H-pyrazolo[4,3-f]quinazolin-4-yl)-5-ethynyl-6-fluoronaphthalen-2-ol] | 0.19 | 0.169 | 11.68 | 7.24
C#Cc1c(F)ccc2cc(O)cc(-c3cc4nc(OCC5(CN6CCC7(CC6)CC7(F)F)CC5)nc(N5C[C@H]6CC[C@@H](C5)N6)c4c4cn(C)nc34)c12 [Example 73, 4-(9-((1R,5S)-3,8-diazabicyclo[3.2.1]octan-3-yl)-7-((1-((1,1-difluoro-6-azaspiro[2.5]octan-6-yl)methyl)cyclopropyl)methoxy)-2-methyl-2H-pyrazolo[4,3-f]quinazolin-4-yl)-5-ethynyl-6-fluoronaphthalen-2-ol] | 0.037 | 0.049 | 11.97 | 5.60
C#Cc1c(F)ccc2cc(N)cc(-c3cc4nc(OC[C@@]56CCCN5C/C(=C\F)C6)nc(N5C[C@H]6CC[C@@H](C5)N6)c4c4cn(C)nc34)c12 [Example 74, 4-(9-((1R,5S)-3,8-diazabicyclo[3.2.1]octan-3-yl)-7-(((S,Z)-2-(fluoromethylene)tetrahydro-1H-pyrrolizin-7a(5H)-yl)methoxy)-2-methyl-2H-pyrazolo[4,3-f]quinazolin-4-yl)-5-ethynyl-6-fluoronaphthalen-2-amine] | 0.11 | 0.143 | 7.82 | 5.30
C#Cc1c(F)ccc2cc(O)cc(-c3cc4nc(OC[C@@]56CCCN5C/C(=C\F)C6)nc(N5C[C@H]6CC[C@@H](C5)N6)c4c4cn(C)nc34)c12 [Example 75, 4-(9-((1 R,5S)-3,8-diazabicyclo[3.2.1]octan-3-yl)-7-(((S,Z)-2-(fluoromethylene)tetrahydro-1H-pyrrolizin-7a(5H)-yl)methoxy)-2-methyl-2H-pyrazolo[4,3-f]quinazolin-4-yl)-5-ethynyl-6-fluoronaphthalen-2-ol] | 0.034 | 0.02 | 13.74 | 9.60
